From US20220324835A1 (Nurix Therapeutics, Inc., priority 2018, published 2022) come the findings set out here.

The test system of one assay is T-cells. The assay can be described thus: In vivo activity: CD25 expression on CD4+ or CD8+ T-cells of mice stimulated with anti-CD3 antibody. The conditions noted are these: 2 μg anti-CD3 antibody, 24 hours. How it is done:
(§1) A method of determining the pharmacodynamic profile of Cbl-b inhibitors was performed by dosing strains of mice with competent immune systems such as C57BL/6 or BALB/c with a Cbl-b inhibitor. The Cbl-b inhibitor was dissolved in a suitable formulation and administered by one of various routes such as intravenous (IV), intraperitoneal (IP), subcutaneous (SC), or oral (PO), at a suitable dose level and frequency (e.g. twice per day BID or thrice per day TID) as informed by prior pharmacokinetic and tolerability studies. Following administration of the Cbl-b inhibitor, T-cells and indirectly other immune cells (e.g. via cytokine production) were stimulated in vivo by administration of an anti-CD3 antibody or antigen-binding fragment thereof in PBS at defined amounts such as 2 μg or 10 μg per animal by routes such as IV or IP (See Hirsh et al., J. Immunol., 1989; Ferran, et al., Eur. J. Immunol., 1990). Additional study control arms included groups of mice treated with a vehicle formulation alone (i.e., formulation without the Cbl-b inhibitor and anti-CD3 antibody), a formulation containing the Cbl-b inhibitor alone, a formulation containing the anti-CD3 antibody alone, PBS alone, or combinations of these agents. The level of immune activation was then assessed by analysis of plasma cytokine levels and/or expression of activation markers on immune cells (e.g. T-cells). Blood or lymphoid organs (e.g. spleen) were collected at defined time points (e.g. 8 hours or 24 hours). Blood samples were processed to collect plasma for determination of cytokine levels using standard methods known in the art. Cytokines measured included IL-2, IFNγ, and TNFα. Additional blood samples and lymphoid tissues were processed for flow cytometric analysis of immune cells (e.g. T-cells) using standard methods to determine expression of cell type-specific markers and activation markers such as CD25 and/or CD69. Augmentation of immune stimulation by Cbl-b inhibitor administration was assessed by comparing the relative concentrations of cytokines in plasma, or the expression levels of activation markers on immune cells between appropriate groups (e.g. mice treated with Cbl-b inhibitor and 2 μg anti-CD3 antibody versus mice treated with vehicle and 2 μg anti-CD3 antibody).
(§2) Cbl-b inhibitors were tested to determine their ability to induce or enhance the level of cytokines (e.g. IL-2, IFNγ, and TNFα) in blood obtained from treated mice stimulated with an anti-CD3 antibody, which is indicative of modulation of the immune response. Cbl-b inhibitors were also tested to determine their ability to induce or enhance the expression of cell surface markers on T-cells (e.g. CD25 and/or CD69) isolated from treated mice stimulated with an anti-CD3 antibody, which is indicative of modulation of the immune response.
(§3) Readouts were reported as fold change over baseline. The fold change was calculated from the mean value of mice treated with Cbl-b inhibitor and 2 μg anti-CD3 antibody, with the baseline defined as the mean value of mice treated with vehicle and 2 μg anti-CD3 antibody. Increases in the percentage of cells with surface expression of CD25 on CD4+ T-cells or CD8+ T-cells greater than 1.5-fold over baseline at 24 hours were considered a positive response. Increases in the plasma concentration of IL-2, IFNγ, and TNFα greater than 1.5-fold over baseline at 8 hours post-stimulation were also considered a positive response (Table 8). Fold changes were ranked into bins according to their readouts as follows: A indicates >2.50, B indicates 2.01-2.50, C indicates 1.51-2.00, D indicates 1.00-1.50, and E indicates <1.00.

Assay [1] has as its system IL-2, IFNγ, and TNFα in plasma. The assay can be described thus: In vivo activity: plasma cytokine levels (IL-2, IFNγ, TNFα) in mice stimulated with anti-CD3 antibody. As to conditions: 2 μg anti-CD3 antibody, 8 hours post-stimulation. The protocol: as §1, §2, §3
The subject of the next assay is primary human B cells. The assay can be described thus: B cell activation assay (CD69 on anti-IgM stimulated B cells). The conditions noted are these: AUC of dose response curve (10 μM to 1 nM) of CD69 MFI normalized to DMSO control. Format: cell-based. How it is done: Peripheral blood mononuclear cells (PBMC) were obtained either: 1) by using Ficoll-Paque™ (GE Healthcare) for separation of peripheral blood hematopoietic cells from buffy coats of healthy human donors; or 2) directly from LeukoPak donations. Human primary B cells were isolated from the PBMCs utilizing negative selection with commercial kits following the manufacturer's protocol (StemCells Catalog #17954) to yield >95% CD20+ cells assessed by flow cytometry. Primary human B cells were plated at 0.7-1×10^5 per well in a 96-well plate with Cbl-b inhibitors over a dose ranging from 10 μM to 1 nM and incubated at 37° C. 5% CO2, with a final DMSO concentration of <0.5%. Cells were stimulated with anti-IgM for 20 hours at 37° C. 5% CO2. Surface activation markers on mature CD20^+ IgD^+ B cells were monitored by FACS using an anti-CD69 antibody (BD Biosciences).
Cbl-b inhibitors were tested to determine their ability to induce or enhance surface expression of cell surface markers on B cells (e.g., CD69), which is indicative of B cell activation.
Readouts were reported as area under curve (AUC) of the dose response curve of CD69 mean fluorescence intensity (MFI) normalized to the DMSO control. Baseline for this study was the measurement obtained from primary human B cells treated with DMSO in the presence of 2.5 μg/mL of anti-IgM-F(ab′)2. […] Compounds were ranked into bins according to their readouts as follows: A indicates ≤0.5, B indicates 0.5-1.00, C indicates 1.01-1.50, and D indicates ≥1.51.

For the molecule `C[C@@H](Sc1nncn1C)c1cccc(NC(=O)c2cccc(C(F)(F)F)n2)c1` [Compound 57b, (R)-N-(3-(1-((4-methyl-4H-1,2,4-triazol-3-yl)thio)ethyl)phenyl)-6-(trifluoromethyl)picolinamide], in the assay with T-cells (90 mpk IP BID), the “CD4+ T-cell % CD25+” value is “C (C indicates 1.51-2.00)” and the “CD8+ T-cell % CD25+” value is “E (E indicates <1.00)”. Moreover, in the assay with T-cells (90 mpk IP TID), the “CD4+ T-cell % CD25+” value was “E (E indicates <1.00)” and the “CD8+ T-cell % CD25+” value is “D (D indicates 1.00-1.50)”. For the same molecule, in assay [1] (90 mpk IP BID), the IFNγ plasma concentration result is “E (E indicates <1.00)”, the IL-2 plasma concentration result was “E (E indicates <1.00)” and the TNFα plasma concentration entry is reported as “D (D indicates 1.00-1.50)”. In assay [1] (90 mpk IP TID), the IFNγ plasma concentration entry was “E (E indicates <1.00)”, the IL-2 plasma concentration result is reported as “E (E indicates <1.00)” and the TNFα plasma concentration entry is reported as “E (E indicates <1.00)”. The “CD69 MFI AUC” value with primary human B cells is “A (A indicates ≤0.5)”.
